Test results published in patent publication US8647824B2, “Microbial reductive dehalogenation of vinyl chloride” (The Board of Trustees of the Leland Stanford Junior …, priority 2004, dated 2014).

Legend:
[1] = system: VC reductive dehalogenase of Dehalococcoides sp. strain VS; assay: VC-reduction enzyme assay with Ti(III)-reduced methyl viologen as electron donor, gas chromatography; assay type: biochemical
Experimental: Enzyme assays. Cells were harvested by centrifugation (20,000 g, 20 min, 4° C.) under strictly anoxic conditions using the anoxic chamber, washed and resuspended in degassed MOPS buffer (20 mM, pH 7.2) supplemented with 2 mM DTE and 0.2 mM titanium(III)NTA (buffer A). The buffer was incubated overnight in the anoxic chamber before addition of reducing agents. Cell-free extracts were obtained by anoxic disruption of cells by French Press treatment (138 MPa; two passages), followed by two centrifugation steps (30,000×g, 15 min, 4° C.).
Assays of VC-reduction were conducted as described previously in 2-ml glass vials under an N2/H2 atmosphere with Ti(III)-reduced methyl viologen as artificial electron donor (Rosner et al.) The protein concentration in the assay varied between 10 and 100 μg/ml. The test was started by addition of gaseous VC to the assay mix (total aqueous volume 0.3 ml), and change in VC and ethene concentrations were followed with time by gas chromatography. Experiments testing for reduction of liquid chlorinated ethenes (PCE, TCE, DCE-isomers) were carried out essentially as described above with the appropriate substitution of the chlorinated ethene. The chlorinated compounds were added from aqueous stock solutions.
Oxygen sensitivity of VC-reducing activity in cell-free extract was investigated in buffer amended with resazurin as redox indicator. Prior to addition of VC, the assay was exposed to air until the resazurin underwent a color-change from colorless to pink. Subsequently, the assay was rendered anoxic again by exchanging the gas phase inside the anoxic chamber followed by addition of Ti(III)NTA (5 mM final concentration). All enzyme assays were carried out at ambient temperature, and given activities are means of at least three independent measurements.
Partial purification of VC reductase. Protein purification was performed at 4° C. in the anoxic chamber. The membrane fraction was obtained by centrifugation of cell-free extract at 100,000×g for 90 min at 4° C. The pellet was resuspended in 1 ml buffer A supplemented with 2 mM 3-[(3-cholamidopropyl)dimethylammonio]-1-propanesulfonic acid (CHAPS), and incubated for 1 h on ice. After subsequent centrifugation (100,000×g, 90 min, 4° C.) the solubilized membrane fraction was diluted with an equal volume of buffer B (50 mM 1,3-Bis[tris(hydroxymethyl)methylamino]propane (Bis-Tris Propane), pH 9.6, 2 mM dithiothreitol, 0.2 mM titanium(III)NTA, 20 mM CHAPS), and loaded on a 1-ml HighTrap Q column (Amersham Pharmacia) equilibrated with buffer C (same as buffer B but with 2 mM CHAPS). VC reductive dehalogenase activity was eluted as a single peak (at 550 to 580 mM NaCl) with 10 ml buffer C followed by a 40-ml linear gradient from 0-700 mM NaCl in buffer C at a flow of 1 ml/min. Fractions containing the highest activity were pooled and mixed with an equal volume of buffer A containing 20 mM CHAPS, and applied to a Superose-6 column equilibrated with the same buffer. Enzyme activity was eluted with buffer A at a flow rate of 0.2 ml/min. The protein concentration of the samples was determined according to Bradford with bovine serum albumin as a standard.

[2] = system: Victoria mixed culture, containing strain VS; settings: traditional method of cell counting; cited from earlier work
[3] = target: T1, TCE-reductive dehalogenase (TceA) (Dehalococcoides mccartyi, UniProt Q3ZAB8); settings: TceA of D. ethenogenes 195; cited from earlier work
T1 sequence (Q3ZAB8 43-554): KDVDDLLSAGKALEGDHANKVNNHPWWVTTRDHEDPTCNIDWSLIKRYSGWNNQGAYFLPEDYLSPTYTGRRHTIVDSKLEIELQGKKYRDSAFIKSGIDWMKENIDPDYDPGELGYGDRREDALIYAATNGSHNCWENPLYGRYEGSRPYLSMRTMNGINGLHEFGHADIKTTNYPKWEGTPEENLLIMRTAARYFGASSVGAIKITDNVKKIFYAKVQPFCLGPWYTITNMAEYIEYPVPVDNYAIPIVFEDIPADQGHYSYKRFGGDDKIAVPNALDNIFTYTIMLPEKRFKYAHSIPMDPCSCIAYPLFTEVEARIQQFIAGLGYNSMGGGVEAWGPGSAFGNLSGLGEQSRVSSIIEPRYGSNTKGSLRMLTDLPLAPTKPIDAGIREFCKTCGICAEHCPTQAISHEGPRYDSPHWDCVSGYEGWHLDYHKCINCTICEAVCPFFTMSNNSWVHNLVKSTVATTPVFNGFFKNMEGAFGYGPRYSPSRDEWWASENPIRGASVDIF

[4] = system: Dehalococcoides ethenogenes strain 195; assay: Batch dechlorination, D. ethenogenes strain 195 culture; assay type: cell-based; settings: cultures supplied with VC or DCE
Text: Stock cultures. The Victoria mixed culture, containing strain VS, was maintained in a closed continuously stirred tank reactor (CSTR) as previously described. A VC enrichment of this culture, maintained over 5 years, was also used in these investigations. Liquid cultures of the three other cultures evaluated (Pinellas, KB-1/VC, and Dehalococcoides ethenogenes strain 195) were kept in anaerobic bottles, stored in an anaerobic chamber (10% H2, 10% CO2, 80% N2). The bottles were amended with TCE (1-3 μL neat liquid), VC (250 μL gas), and PCE (1-3 μL neat liquid) being added to each, respectively, approximately every two weeks.
Batch studies. For the experimental portion of this research, two studies were undertaken, one a comparative VC growth study, and the other a comparative growth and substrate utilization study with different chlorinated ethenes. These studies compared the dechlorination abilities of Dehalococcoides ethenogenes strain 195 and the Dehalococcoides-like microorganisms in the three mixed cultures (Victoria, KB-1/VC, and Pinellas).
For the first study, a VC enriched inoculum was first developed for each of the three mixed cultures. Here, bottles (120 mL) were filled with 60 mL of anaerobic media in an anaerobic chamber as previously described, and inoculated with 200 μL of each stock culture. Gaseous VC (99.5%) was added with a gas tight syringe (200 μL). […]

[5] = system: highly enriched culture of strain VS; settings: previously determined; cited from earlier work

SMILES | reduction rate relative to reduction rate for cDCE to VC ([1]; reduction of TCE to cDCE) | effect on the reduction rate of VC ([1]; saturating concentrations of PCE or TCE present) | growth rate determined previously by cell counting [2] | rate of reduction by active protein fractions ([1]; fractions after gel filtration, reduced methyl viologen as electron donor) | VC-reduction rate relative to activity of TCE- and cDCE-reduction [3] | dechlorination by D. ethenogenes strain 195 [4] | strain VS maximum VC utilization rate [5]
ClC=C(Cl)Cl [TCE, trichloroethene] | 5% | not affected | – | – | – | – | –
C=CCl [VC, vinyl chloride] | – | – | 0.4 day⁻¹ | 350 nmol min^−1 [mg protein]^−1 | less than 1% | did not dechlorinate | 7.8×10^−10 μmol Cl^− (cell·d)^−1
